Results as given in publication PMC9161616, “A first-in-human phase 1/2 study of FGF401 and combination of FGF401 with spartalizumab in patients with hepatocellular carcinoma or biomarker-selected solid tumors” (Journal of Experimental & Clinical Cancer Research : CR, 2022).

Tests used:
[1] = tested on: patients with HCC or other solid malignancies
Protocol: FGF401 was administered per oral under fasted condition or with low-fat meal on a continuous once daily (qd) regimen for both FGF401 single agent and in combination with spartalizumab. A 300-mg intravenous infusion of spartalizumab was administered once every three weeks (q3w) and 1 treatment cycle was defined as 21 days. The study treatment was administered until the patient experienced unacceptable toxicity, progressive disease and/or the treatment was discontinued at investigator’s discretion or patient’s withdrawal of consent. Figure 1 summarizes the study design and visit flow.
The secondary endpoints characterizing safety, efficacy, pharmacokinetics (PK), immunogenicity, and food effect properties of the FGF401 and the combination were based on the assessments on their respectively defined population sets. Adverse events (AEs) that emerged during treatment were monitored throughout the study until 30 days after discontinuation of the single agent and 150 days after discontinuation of the combination. Adverse events were coded using the Medical Dictionary for Regulatory Activities (MedDRA) and assessed as per Common Terminology Criteria for Adverse Events (CTCAE) version 4.03. The clinical laboratory assessments were collected no later than 30 days after the last date of study treatment administration. The grades were classified as low/normal/high when not defined by CTCAE v4.03. Other assessments of vital signs, physical examinations, and electrocardiogram (ECG) parameters were also performed.
Safety analyses conducted in the safety set constituted summaries for AEs occurring during on-treatment period with number and percentage of patients having at least 1 AE. Summaries presented overview of AEs and deaths (number and percentage of patients who died with any AE, SAE, dose reductions/interruptions, AE leading to discontinuation), SAEs, AEs related to study treatment, AEs leading to treatment discontinuation, dose interruption/adjustment or fatal outcome. Additionally, in combination part, summaries were produced using all treatment-related AEs starting or worsening during the on-treatment or extended safety follow-up periods (within 150 days after the date of last administration of study treatment).

[2] = tested on: HCC and gastric cancer cell lines expressing FGFR4, KLB and FGF19; settings: excellent selectivity over non-sensitive tumor models; cited from earlier work
[3] = single agent, All patients N = 160

COCCNc1cc(NC(=O)N2CCCc3cc(CN4CCN(C)CC4=O)c(C=O)nc32)ncc1C#N [FGF401, roblitinib]
patients who died on treatment because of existing cancer ([1]; 17 patients of 160): 10.6%
discontinued treatment because of progressive disease ([1]; 130 of 160 patients): 81%
patients who died on treatment ([1]; Twenty patients of 160): 12.5%
patients who died on treatment because of other reasons ([1]; gastric bleeding, multiple organ dysfunction syndrome, unknown cause): 3 patients
AEs leading to FGF401 discontinuation, All grades ([1]; human, in vivo): 18 (11.3) n (%)
AEs leading to FGF401 discontinuation, Grade 3 or 4 ([1]; human, in vivo): 13 (8.1) n (%)
AEs leading to FGF401 discontinuation, Treatment related, All grades ([1]; human, in vivo): 12 (7.5) n (%)
AEs leading to FGF401 discontinuation, Treatment related, Grade 3 or 4 ([1]; human, in vivo): 8 (5.0) n (%)
AEs leading to FGF401 dose adjustment/interruption, All grades ([1]; human, in vivo): 80 (50.0) n (%)
AEs leading to FGF401 dose adjustment/interruption, Grade 3 or 4 ([1]; human, in vivo): 58 (36.3) n (%)
AEs leading to FGF401 dose adjustment/interruption, Treatment related, All grades ([1]; human, in vivo): 47 (29.4) n (%)
AEs leading to FGF401 dose adjustment/interruption, Treatment related, Grade 3 or 4 ([1]; human, in vivo): 34 (21.3) n (%)
ALT increased leading to FGF401 discontinuation ([1]; human, in vivo): 3.8%
AST increased leading to FGF401 discontinuation ([1]; human, in vivo): 1.9%
Constipation, Grade 3/4 ([1]; human, in vivo): 0 n (%)
Decreased appetite, Grade 3/4 ([1]; human, in vivo): 0 n (%)
Edema peripheral, Grade 3/4 ([1]; human, in vivo): 0 n (%)
Grade 3 or 4 AEs suspected to be related to study treatment ([1]; human, in vivo): 31.9%
Grade 3 or 4 related ALT elevated ([1]; human, in vivo): 15.0%
Grade 3 or 4 related AST increased ([1]; human, in vivo): 18.8%
Grade 3 or 4 related diarrhea ([1]; human, in vivo): 5.0%
Nausea, Grade 3/4 ([1]; human, in vivo): 0 n (%)
Primary reason for end of treatment: Adverse event ([1]; human, in vivo): 18 (11.3) n (%)
Pyrexia, Grade 3/4 ([1]; human, in vivo): 0 n (%)
SAEs, Treatment related, Grade 3 or 4 ([1]; human, in vivo): 7 (4.4) n (%)
blood bilirubin increased leading to FGF401 discontinuation ([1]; human, in vivo): 2.5%
dose interruption due to AEs ([1]; human, in vivo): 52.5%
dose reduction due to AEs ([1]; human, in vivo): 18.1%
patients with a grade 3 or 4 AE ([1]; human, in vivo): 72.5%
patients with diarrhea ([1]; human, in vivo): 73.8%
patients with dose interruption ([1]; human, in vivo): 60.6%
patients with dose reduction ([1]; human, in vivo): 21.3%
patients with increased ALT ([1]; human, in vivo): 43.8%
patients with increased AST ([1]; human, in vivo): 47.5%
Primary reason for end of treatment: Death ([1]; single agent N=160): 2 (1.3) n (%)
Primary reason for end of treatment: Progressive disease ([1]; single agent N=160): 130 (81.3) n (%)
AEs, All grades [1, 3]: 160 (100) n (%)
AEs, Grade 3 or 4 [1, 3]: 116 (72.5) n (%)
AEs, Treatment related, All grades [1, 3]: 148 (92.5) n (%)
AEs, Treatment related, Grade 3 or 4 [1, 3]: 51 (31.9) n (%)
Fatal SAEs, All grades [1, 3]: 3 (1.9) n (%)
Fatal SAEs, Grade 3 or 4 [1, 3]: 3 (1.9) n (%)
Fatal SAEs, Treatment related, All grades [1, 3]: 0 n (%)
Fatal SAEs, Treatment related, Grade 3 or 4 [1, 3]: 0 n (%)
SAEs, All grades [1, 3]: 70 (43.8) n (%)
SAEs, Grade 3 or 4 [1, 3]: 55 (34.4) n (%)
SAEs, Treatment related, All grades [1, 3]: 8 (5.0) n (%)
growth of cell lines [2]: inhibits growth
